Here are results for 19 compounds from patent US11970497B2, “Tricyclic AKR1C3 dependent KARS inhibitors” (Novartis AG, priority 2019, dated 2024).

What is called AC50 is the midpoint of the concentration-response curve, whichever way the signal moves.

The structures appear in SMILES notation. Some results are limits rather than exact numbers.

For one assay, the target named is T1, Human KARS (Homo sapiens, UniProt Q15046).
T1 construct: Human KARS protein (residues 70-584) was expressed and purified; made in house
T1 sequence (Q15046 70-584): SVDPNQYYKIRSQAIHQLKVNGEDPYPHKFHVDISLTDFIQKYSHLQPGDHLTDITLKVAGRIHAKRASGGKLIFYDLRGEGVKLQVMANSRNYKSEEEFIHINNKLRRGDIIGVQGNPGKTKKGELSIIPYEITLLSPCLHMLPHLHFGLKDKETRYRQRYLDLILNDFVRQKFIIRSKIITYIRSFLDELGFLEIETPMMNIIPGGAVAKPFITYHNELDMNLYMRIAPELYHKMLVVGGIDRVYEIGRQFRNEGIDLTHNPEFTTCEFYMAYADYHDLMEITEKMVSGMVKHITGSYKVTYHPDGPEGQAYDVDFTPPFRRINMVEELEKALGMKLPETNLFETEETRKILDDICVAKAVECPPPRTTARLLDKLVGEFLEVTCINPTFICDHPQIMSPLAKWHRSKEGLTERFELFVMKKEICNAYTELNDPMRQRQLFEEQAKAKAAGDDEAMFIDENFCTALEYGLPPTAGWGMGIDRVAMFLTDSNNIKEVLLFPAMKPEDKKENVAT
The experiment in a line: KARS AMP Transcreener FP assay. To be noted: 50 nM human KARS, 20 μM ATP, 50 μM L-Lysine, 1 μM tRNA, 2 h at RT; read-out: Human KARS Transcreener AMP assay Qualified absolute AC50. It counts as biochemical. An excerpt: KARS AMP Transcreener FP Assay to Measure Inhibition of KARS Enzymatic Activity
Lysine-tRNA synthetase (KARS) is an enzyme that catalyzes the reaction of ATP, L-lysine, and tRNA(Lys) to form AMP, diphosphate, and L-lysyl-tRNA(Lys).
The Transceener® AMP/GMP (BellBrook Labs, Madison, WI, USA) is a far red, competitive fluorescence polarization (FP) immunoassay based on the detection of AMP, which is one of the products of aminoacylation of tRNA. In this assay, a fluorescently labeled AMP (AMP Alexa Fluor 633) is used as the tracer that can be recognized by a specific antibody. In the absence of AMP, all the tracer molecules are bound to the antibodies leading to large polarization. The AMP product generated by the enzyme reaction will compete with the tracer for binding to the antibody which leads to a decrease in the polarization. As such, the enzyme activity is inversely proportional to FP values.
Human KARS protein (residues 70-584) was expressed and purified using a similar protocol to what is described in literature (Crystal structure of tetrameric form of human lysyl-tRNA synthetase: Implications for multisynthetase complex formation Guo, M., Ignatov, M., Musier-Forsyth, K., Schimmel, P., Yang, X. L. (2008) Proc. Natl. Acad. Sci. Usa 105: 2331-2336).
The KARS enzyme assay was performed in a final volume of 10 μL per well of Corning Costar 384 well plate, flat bottom, black non-treated plate. The final assay concentration was 20 mM HEPES pH 7.5, 1 mM DTT, 50 nM human KARS, 20 μM ATP, 50 μM L-Lysine, 1 μM tRNA and 8 mM MgCl2. Compounds were serial diluted 1:3 in DMSO in a master plate to generate a 10 concentration points dose response with maximum concentration of 10 mM. 50 nL from compound master plate were spotted in each well of a 384 black plate (Corning 3573), and 5 μL of enzyme mixture containing 100 nM KARS diluted in assay buffer (20 mM HEPES pH 7.5 and 1 mM OTT) were added. The reaction was started by adding 5 μL of the substrate mixture containing 40 μM ATP (final 20 μM ATP), 100 μM L-Lysine (final 50 μM), 2 μM tRNA (final 1 μM), 16 mM MgCl2 (final 8 mM MgCl2) diluted in assay buffer (20 mM HEPES pH 7.5 and 1 mM OTT). The mixtures were mixed and incubated for 2 h at RT before the termination of the reaction.
Transcreener® stop and detection buffers were prepared (1× stop buffer [final: 0.5×], 2 nM Tracer [final: 1 nM] and 5 μg/ml anti-AMP antibody [final: 2.5 μg/ml] in deionized water) and 10 μL of the stop and detection mix were added to the reaction wells, mixed for a minute and centrifuged at 1000 rpm for 10 seconds. The plates were read after incubating at RT for 30-60 min using Infinite® M1000 with the following settings: Excitation wavelength: 635 nm; Emission wavelength: 680 nm. FP values of DMSO controls were used to normalize the data and calculate IC50s of compounds using the Helios Software suite.

In assay [1] the test system is H460 (NRF2 pathway mutant cell line with high AKR1C3 expression). The experiment in a line: In vitro cell proliferation assay (CellTiter-Glo), H460. Type of assay: cell-based. To be noted: Homo sapiens, NCI-H460, 72 h; H460 cells, 3 days, CellTiter-Glo, top concentration 10 μM; read-out: H460 Qualified absolute AC50. The gist of the method: (§1)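 Luminescent CellTiter-Glo readout after 3-day compound exposure at 37 °C; 8-point 1:5 series, top 10 μM final. Seeding: 800 cells/well for H460, 2000 cells/well for Hara, RPMI-1640 plus 10% FBS. AC50 and percentage activity derived after normalizing to DMSO (1%) and MG132 (30 μM) controls.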
(In general: Cellular ATP, detected with luciferase, serves as a proxy for viable cell number.)

In assay [2] the test system is Hara (NRF2 pathway wild type cell line with low AKR1C3 expression). The experiment in a line: In vitro cell proliferation assay (CellTiter-Glo), Hara. Type of assay: cell-based. Conditions: 72 h; Hara cells, 3 days, CellTiter-Glo, top concentration 10 μM; read-out: HARA Qualified absolute AC50. Put shortly: as §1

On to `CN1c2ccc(F)cc2C(O)CC12CCN(C(=O)NCc1cc(NCCO)c(F)cc1F)CC2` (racemic) [Example 156, N-(2,4-difluoro-5-((2-hydroxyethyl)amino)benzyl)-6′-fluoro-4′-hydroxy-1′-methyl-3′,4′-dihydro-1′H-spiro[piperidine-4,2′-quinoline]-1-carboxamide], for which the half-maximal activity concentration (AC50) on Human KARS worked out at 23.5 nM; in assay [1], 49 nM; in assay [2] it was 80 nM.
On to `NC(=O)c1cc(CNC(=O)N2CCC3(CC2)CC(O)c2cc(F)cc(F)c2N3)ccc1F` (racemic) [Example 157, N-(3-carbamoyl-4-fluorobenzyl)-6′,8′-difluoro-4′-hydroxy-3′,4′-dihydro-1′H-spiro[piperidine-4,2′-quinoline]-1-carboxamide], for which the results for the concentration at half-maximal activity (AC50) (at Human KARS; in assay [1]; in assay [2]) were 34.1 nM, 0.1 nM and 2 nM, respectively.
For `Nc1cc(CNC(=O)N2CCC3(CC2)CC(O)c2cc(F)ccc2N3)ccc1F` (racemic) [Example 158, N-(3-amino-4-fluorobenzyl)-6′-fluoro-4′-hydroxy-3′,4′-dihydro-1′H-spiro[piperidine-4,2′-quinoline]-1-carboxamide], the AC50 is 42.1 nM on Human KARS, 33 nM in assay [1] and 6 nM in assay [2].
`O=C(NCc1ccc(F)c(CO)c1)N1CCC2(CC1)CC(O)c1cc(F)ccc1N2` (racemic) [Example 159, 6′-fluoro-N-(4-fluoro-3-(hydroxymethyl)benzyl)-4′-hydroxy-3′,4′-dihydro-1′H-spiro[piperidine-4,2′-quinoline]-1-carboxamide]: the AC50 on Human KARS came to 45.9 nM; in assay [1] it was 53 nM; in assay [2] it was 67 nM.
For `NC(=O)c1cc(CNC(=O)N2CCC3(CC2)CC(O)c2cc(F)ccc2N3)ccc1F` (racemic) [Example 160, N-(3-carbamoyl-4-fluorobenzyl)-6′-fluoro-4′-hydroxy-3′,4′-dihydro-1′H-spiro[piperidine-4,2′-quinoline]-1-carboxamide], in that order: 47.2 nM, 0.4 nM and 1 nM.
On the same counts, the results for `CN1c2ccc(F)cc2C(O)CC12CCN(C(=O)NCc1ccc(F)c(CC(N)=O)c1)CC2` (racemic) [Example 161, N-(3-(2-amino-2-oxoethyl)-4-fluorobenzyl)-6′-fluoro-4′-hydroxy-1′-methyl-3′,4′-dihydro-1′H-spiro[piperidine-4,2′-quinoline]-1-carboxamide] are 71.8 nM, 278 nM and 91 nM.
As for `O=C(NC1CC(O)C1)c1cc(CNC(=O)N2CCC3(CC2)CC(O)c2cc(F)ccc2N3)ccc1F` (racemic) [Example 162, 6′-fluoro-N-(4-fluoro-3-((3-hydroxycyclobutyl)carbamoyl)benzyl)-4′-hydroxy-3′,4′-dihydro-1′H-spiro[piperidine-4,2′-quinoline]-1-carboxamide], the figures for the half-maximal activity concentration (AC50) (at Human KARS; in assay [1]) were 73.7 nM and 47 nM, respectively.
With `CN1c2ccc(F)cc2C(O)CC12CCN(C(=O)NCc1ccc(F)c(OCCO)c1)CC2` (racemic) [Example 163], the AC50 on Human KARS amounted to 98.4 nM; in assay [1], 76 nM; in assay [2], 11 nM.
On to `CS(=O)(=O)Nc1cc(CNC(=O)N2CCC3(CC2)CC(O)c2cc(F)ccc2N3)ccc1F` (racemic) [Example 164, 6′-fluoro-N-(4-fluoro-3-(methylsulfonamido)benzyl)-4′-hydroxy-3′,4′-dihydro-1′H-spiro[piperidine-4,2′-quinoline]-1-carboxamide], for which the half-maximal activity concentration (AC50) on Human KARS turned out to be 106 nM; in assay [1], 253 nM; in assay [2] it was 234 nM.
On the same counts, the results for `COCCNc1cc(F)ccc1CNC(=O)N1CCC2(CC1)CC(O)c1cc(F)ccc1N2C` (racemic) [Example 166, 6′-fluoro-N-(4-fluoro-2-((2-methoxyethyl)amino)benzyl)-4′-hydroxy-1′-methyl-3′,4′-dihydro-1′H-spiro[piperidine-4,2′-quinoline]-1-carboxamide] are 243 nM, 3 nM and 22 nM.
For `CN1c2ccc(F)cc2C(O)CC12CCN(C(=O)NCc1ccc(F)c([C@@H](N)C(F)(F)F)c1)CC2` (mixture of isomers) [Example 167, N-(3-((R)-1-amino-2,2,2-trifluoroethyl)-4-fluorobenzyl)-6′-fluoro-4′-hydroxy-1′-methyl-3′,4′-dihydro-1′H-spiro[piperidine-4,2′-quinoline]-1-carboxamide], in that order: 918 nM, 345 nM and 100 nM.
On the same counts, the results for `CN1c2ccc(F)cc2[C@H](O)CC12CCN(C(=O)NCc1ccc(F)cc1)CC2` (single isomer, unassigned) [Example 151a] are 9.1 nM, 24 nM and 20 nM.
Consider `O=C(NCc1ccc(F)cc1)N1CCC2(CC1)C[C@@H](O)c1cc(F)ccc1N2` (single isomer, unassigned) [Example 152], for which the values for the AC50 (at Human KARS; in assay [1]; in assay [2]) were 9.1 nM, 21 nM and 16 nM, respectively.
In the case of `O=C(NCc1ccc(F)cc1)N1CCC2(CC1)C[C@H](O)c1cc(F)ccc1N2` (single isomer, unassigned) [Example 153], the AC50 at Human KARS is more than 10000 nM; in assay [1] it was 2260 nM; in assay [2], 2500 nM.
On to `O=C(NCc1ccc(F)cc1O)N1CCC2(CC1)C[C@@H](O)c1cc(F)ccc1N2` (single isomer, unassigned) [Example 154a], for which the AC50 at Human KARS came to 11.7 nM; in assay [1], 5 nM; in assay [2], 5 nM.
As for `O=C1CC2(CCN(C(=O)NCc3ccc(F)c(CNCCO)c3)CC2)Nc2ccc(F)cc21` [Example 146, 6′-fluoro-N-(4-fluoro-3-(((2-hydroxyethyl)amino)methyl)benzyl)-4′-oxo-3′,4′-dihydro-1′H-spiro[piperidine-4,2′-quinoline]-1-carboxamide], the values for the AC50 in assay [1] and in assay [2] were 3650 nM and 2790 nM, respectively.
For `NS(=O)(=O)Cc1cc(CNC(=O)N2CCC3(CC2)CC(=O)c2cc(F)ccc2N3)ccc1F` [Example 147, 6′-fluoro-N-(4-fluoro-3-(sulfamoylmethyl)benzyl)-4′-oxo-3′,4′-dihydro-1′H-spiro[piperidine-4,2′-quinoline]-1-carboxamide], the half-maximal activity concentration (AC50) in assay [1] was 3960 nM; in assay [2], more than 10000 nM.
For `CN1c2ccc(F)cc2C(=O)CC12CCN(C(=O)NCc1ccc(F)c([C@@H](N)C(F)(F)F)c1)CC2` [Example 149, (R)—N-(3-(1-amino-2,2,2-trifluoroethyl)-4-fluorobenzyl)-6′-fluoro-1′-methyl-4′-oxo-3′,4′-dihydro-1′H-spiro[piperidine-4,2′-quinoline]-1-carboxamide], in that order: 5430 nM and more than 10000 nM.
On the same counts, the results for `O=C1CC2(CCN(C(=O)NCc3ccc(OC(F)F)cc3)CC2)Nc2c(F)cc(F)cc21` [Example 150, N-(4-(difluoromethoxy)benzyl)-6′,8′-difluoro-4′-oxo-3′,4′-dihydro-1′H-spiro[piperidine-4,2′-quinoline]-1-carboxamide] are 6270 nM and 2620 nM.
